In one data set the test system is K562 cells. Nature of the data set: cells. The settings on record: Homo sapiens, K562, 72 h. It counts as cell-based.
Data set [1] can be described thus: Human microsomal stability. The settings on record: human microsomes, 3 µM.
The nature of data set [2]: Mouse microsomal stability. The settings on record: mouse microsomes, 3 µM.
Data set [3] can be described thus: Human hepatocyte stability. The settings on record: cryopreserved hepatocytes, 3 µM.
Data set [4] in a line: log P and pKa, potentiometric method.
The nature of data set [5]: Human plasma protein binding, equilibrium dialysis. The settings on record: 50%. In general terms: In equilibrium dialysis free small molecules cross a membrane that holds back macromolecules.
Data set [6] in a line: Evaluation of acid stability at pH = 1 by LC-HRMS. The settings on record: for hydrolysis / decomposition at pH 1.0: pH 1.0, in words. In kind it is physicochemical.
The next data set has as its target T1, Eg5 (Homo sapiens, UniProt P52732).
T1 sequence (P52732 1-368): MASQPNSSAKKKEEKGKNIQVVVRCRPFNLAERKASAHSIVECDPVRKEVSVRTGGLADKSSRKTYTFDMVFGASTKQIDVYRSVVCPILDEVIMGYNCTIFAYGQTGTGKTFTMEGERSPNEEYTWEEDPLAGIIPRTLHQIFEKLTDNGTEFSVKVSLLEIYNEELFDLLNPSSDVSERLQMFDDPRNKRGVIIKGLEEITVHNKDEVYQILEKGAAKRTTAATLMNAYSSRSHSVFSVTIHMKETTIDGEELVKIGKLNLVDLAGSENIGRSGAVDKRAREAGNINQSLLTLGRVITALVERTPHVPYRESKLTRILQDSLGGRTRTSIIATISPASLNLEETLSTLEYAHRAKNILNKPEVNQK

The nature of data set [7]: Parallel artificial membrane permeability assay. In kind it is in vitro ADME. The settings on record: passive permeability.
Another data set in a line: log D7.4. The settings on record: n-octanol/buffer, pH 7.4.
[8] abbreviates: calculated from Ki^app of basal ATPase inhibition.

Where two headings read alike, the source gives them in different places.

As a reminder, the GI50 is the concentration giving 50% growth inhibition. For the molecule `Cc1ccc(C(CCC(N)C(=O)O)(c2ccccc2)c2ccccc2)cc1` (racemic) [rac-32, 2-Amino-5,5-diphenyl-5-(4-methylphenyl)pentanoic acid], the GI50 in the data set on K562 cells (read-out: K562 cells, GI50, 72 h, Alamar blue) came out at 98 ± 5 nM.
What is called pKa is the pH at which an ionisable group is half protonated. The low end stands for a stronger acid or weaker base, the high end for a weaker acid or stronger base. As to `Cc1cccc(C(CC[C@@H](N)C(=O)O)(c2ccccc2)c2ccccc2)c1` [(R)-29], the GI50 with K562 cells (read-out: K562 cells, GI50) turned out to be 91 ± 9 nM. Besides, the “microsomal stability, Clint, human” value in data set [1] is “stable”. In addition, the “microsomal stability, Clint, mice” value in data set [2] is listed as “stable”. Further, in data set [3], the “human hepatocytes, intrinsic clearance” value was “stable”. Moreover, the pKa worked out at 9.07 in data set [4] (pKa 1) and 2.55 in [4] (pKa 2). In [5], this molecule yielded a recovery at 5 µM of 50.1%.
With `Cc1cccc(C(CC[C@H](N)C(=O)O)(c2ccccc2)c2ccccc2)c1` [(S)-29], the GI50 in the data set with K562 cells (read-out: K562 cells, GI50) stood at 128 ± 15 nM. In data set [1], the “microsomal stability, Clint, human” value is recorded as “stable”. In data set [2], the “microsomal stability, Clint, mice” value is given as “stable”. Further, in [3], the “human hepatocytes, intrinsic clearance” value is given as “stable”. Also, the pKa was found to be 9.07 in [4] (pKa 1) and 2.55 in [4] (pKa 2). The molecule also showed a recovery at 5 µM in data set [5] of 52.3%.
`N[C@@H](CSC(c1ccccc1)(c1ccccc1)c1ccccc1)C(=O)O` [compound 1, S-trityl-L-cysteine, reference compound]: the “t1/2, acid stability” value in data set [6] (pH 1.0, 0-24 h, LC-HRMS) was “stable”.
In turn, `NCCSC(c1ccccc1)(c1ccccc1)c1ccccc1` [compound 2, 2-(Tritylsulfanyl)ethanamine] had a ligand efficiency at Eg5 of 0.39.
On to `NCCOC(c1ccccc1)(c1ccccc1)c1ccccc1` [compound 6, 2-(Trityloxy)ethanamine], for which the “hydrolysis / decomposition at pH 1.0” value in data set [6] is “decomposed after 16 h”.
Turning to `N[C@@H](CNC(c1ccccc1)(c1ccccc1)c1ccccc1)C(=O)O` [compound 7, (2 S)-2-Amino-3-(tritylamino)propanoic acid], the “hydrolysis / decomposition at pH 1.0” value in [6] is on record as “completely hydrolyzed”.
For `NCCNC(c1ccccc1)(c1ccccc1)c1ccccc1` [compound 8, N-Tritylethane-1,2-diamine], at Eg5, the ligand efficiency is reported as 0.33. Moreover, the “hydrolysis / decomposition at pH 1.0” value in data set [6] was “completely hydrolyzed”.
For the molecule `NCCCC(c1ccccc1)(c1ccccc1)c1ccccc1` [compound 10, 4,4,4-Triphenylbutan-1-amine], the “stability at pH 1.0” value in [6] (5 days at pH 1.0) is recorded as “stable”.
Consider `NCCSC(c1ccccc1)(c1ccccc1)c1cccc(F)c1` [compound 12, 2-(((3-Fluorophenyl)(diphenyl)methyl)sulfanyl)ethanamine], for which the ligand efficiency on Eg5 (setting [8]) is given as 0.36.
With `N[C@@H](CSC(c1ccccc1)(c1ccccc1)c1cccc(Cl)c1)C(=O)O` [compound 13, (2 R)-2-Amino-3-(((3-chloroxyphenyl)(diphenyl)methyl)sulfanyl)propanoic acid], on Eg5 (setting [8]), the ligand efficiency is recorded as 0.36.
On to `NCCSC(c1ccccc1)(c1ccccc1)c1cccc(Cl)c1` [compound 14, 2-(((3-Chlorophenyl)(diphenyl)methyl)sulfanyl)ethanamine], for which the ligand efficiency at Eg5 (setting [8]) is on record as 0.37.
With `COc1cccc(C(SCCN)(c2ccccc2)c2ccccc2)c1` [compound 21, 2-(((3-Methoxyphenyl)(diphenyl)methyl)sulfanyl)ethanamine], the ligand efficiency on Eg5 (setting [8]) was 0.37.
For the molecule `N[C@@H](CSC(c1ccccc1)(c1ccccc1)c1cccc(O)c1)C(=O)O` [compound 35, (2 R)-2-Amino-3-(((3-hydroxyphenyl)(diphenyl)methyl)sulfanyl)propanoic acid], in data set [7], the “PAMPA Papp” value is given as “no permeability recorded”.
The logD is the decadic logarithm of the distribution of all forms, ionised or not, between an organic phase and buffer at a given pH. Regarding `NC(=O)c1cccc(C(SC[C@H](N)C(=O)O)(c2ccccc2)c2ccccc2)c1` [compound 41, (R)-2-amino-3-(((3-carbamoylphenyl)diphenylmethyl)sulfanyl)propanoic acid], the “PAMPA Papp” value in data set [7] is recorded as “no membrane diffusion detected”. The molecule further registered a logD in the data set “log D7.4” of 1.13.
Consider `Cc1ccc(C(=O)N(CCCN)[C@@H](c2nc3cc(Cl)ccc3c(=O)n2Cc2ccccc2)C(C)C)cc1` [compound 54, ispinesib, reference compound], for which, in data set [1], the “microsomal stability, Clint, human” value is recorded as “stable”. Further, the “microsomal stability, Clint, mice” value in [2] is recorded as “stable”. In [5], this molecule registered a recovery at 5 µM of 50.6%.

(Values after article PMC3428805 (Journal of Medicinal Chemistry, 2012).)
